Experimental data from patent publication US20100152044A1, “Plant growth regulation” (Bayer CropScience GmbH, priority 2004, published 2010).
Blank lines part the entries; values can stand above or below the compound they belong to.

Assays:
[1] = tested on: wheat (Triticum aestivum, variety TRISO); experiment: Root growth assay, seed treatment, wheat; type: in vivo; details: Root Growth of 100 is set as the standard, wet root weight 16 (±2) days post treatment
Description: (§1) Plant roots are a highly proliferative tissue that allows an easy accessible, cheap and short term screening method for plant growth regulators. The results obtained can easily be transferred to the overall effects on a plant of plant growth regulators identified by such a system. By using this root assay one is enabled to determine the effect of a seed treatment to root growth and/or germination and/or changes in habitat of germinated plants in order to identify the possible use as a yield enhancer. Two seeds of wheat (Triticum aestivum, variety “TRISO”) or 1 seed of maize (Zea mays, variety “LORENZO”) per hole in a plastic tray which contains an architecture of 8×13 holes were placed on compost soil covered with sand. These seeds were treated with 100 μl/hole, which creates an application volume of approx. 1200 l/ha, of a compound solution at active ingredient rates equivalent to 100, 10 and 1 g a.i./ha of each compound using an robotic application system (Lizzy Spray Robotics). Six replicates in a row of each compound and concentration were done. The outer rim of the above defined plastic tray was untreated to avoid false negative effects and the middle row (No. 7) was used as untreated control. The treated seeds were allowed to dry for approx. 4 hours and subsequently covered with sand and watered. The trays were stored in climate chambers with 14 hours lighting at a temperature of 24° C. (±2) at daytime and 16° C. (±2) at night and relative humidity (rH) of 60% and daily watered. Assessments were done 16 (±2) days post treatment by counting the germinated plants and assessing the phytotoxicity symptoms and percentage. In addition, the roots were washed out and the shoots were cut directly above the seed and the wet roots were placed on dry paper towels for approximately 30 minutes and weighted afterwards. This procedure provides a similar grade of moisture to the roots so that a comparison of the weights is possible.
(§2) The effects observed concerning Root Growth given in column 2 (Root Growth of “100” is set as the standard) are directed to concentrations that are equivalent to 100, 10, 1 g a.i./ha, each.

[2] = tested on: maize (Zea mays, variety LORENZO); experiment: Root growth assay, seed treatment, maize; type: in vivo; details: Root Growth of 100 is set as the standard, wet root weight 16 (±2) days post treatment
Description: as §1, §2

Compound: O=C1NC(=O)C(c2c[nH]c3ccccc23)=C1c1c[nH]c2ccccc12 [Compound 1, 3,4-Di-(1H-indol-3-yl)pyrrole-2,5-dione]
- Root Growth ([1]; 1 g a.i./ha): 69
- Root Growth ([1]; 10 g a.i./ha): 129
- Root Growth ([1]; 100 g a.i./ha): 133

- melting point: 187 °C
Compound: O=C1NC(=O)C(c2ccccc2)=C1Nc1cccc(Cl)c1 [Compound 1.1, 3-(3-Chlorophenylamino)-4-phenylpyrrole-2,5-dione]

- melting point: 242 °C
Compound: O=C1NC(=O)C(c2ccccc2)=C1Nc1ccc(Cl)c(Cl)c1 [Compound 1.2, 3-(3,4-dichlorophenylamino)-4-phenylpyrrole-2,5-dione]
- Root Growth ([2]; 1 g a.i./ha): 130
- Root Growth ([2]; 10 g a.i./ha): 117
- Root Growth ([2]; 100 g a.i./ha): 141

- melting point: 206 °C
Compound: O=C1NC(=O)C(c2ccccc2)=C1Nc1ccc(OC(F)(F)F)cc1 [Compound 1.6, 3-Phenyl-4-(4-trifluoromethoxyphenylamino)pyrrole-2,5-dione]

Compound: O=C1NC(=O)C(c2ccccc2C(F)(F)F)=C1Nc1ccc(O)c(Cl)c1 [Compound 1.8]
- Root Growth ([2]; 1 g a.i./ha): 114
- Root Growth ([2]; 10 g a.i./ha): 144
- Root Growth ([2]; 100 g a.i./ha): 123

Compound: O=C1NC(=O)C(c2cc(Cl)sc2Cl)=C1Nc1ccc(O)c(Cl)c1 [Compound 1.10]
- Root Growth ([1]; 1 g a.i./ha): 101
- Root Growth ([1]; 10 g a.i./ha): 134
- Root Growth ([1]; 100 g a.i./ha): 77

Compound: O=C1NC(=O)C(c2ccc(Cl)cc2)=C1Nc1ccc(O)c(C(=O)O)c1 [Compound 1.12]
- Root Growth ([2]; 1 g a.i./ha): 122
- Root Growth ([2]; 10 g a.i./ha): 172
- Root Growth ([2]; 100 g a.i./ha): 199

Compound: Cc1ccc(NC2=C(c3ccc(Br)cc3)C(=O)NC2=O)cc1Cl [Compound 1.16]
- Root Growth ([1]; 1 g a.i./ha): 84
- Root Growth ([1]; 10 g a.i./ha): 171
- Root Growth ([1]; 100 g a.i./ha): 129
- Root Growth ([2]; 1 g a.i./ha): 113
- Root Growth ([2]; 10 g a.i./ha): 112
- Root Growth ([2]; 100 g a.i./ha): 158

Compound: O=C1NC(=O)C(c2ccc(Cl)cc2)=C1Nc1ccc(C(=O)O)cc1 [Compound 1.19]
- Root Growth ([1]; 1 g a.i./ha): 148
- Root Growth ([1]; 10 g a.i./ha): 183
- Root Growth ([1]; 100 g a.i./ha): 91

Compound: O=C1NC(=O)C(c2c(Cl)cccc2Cl)=C1Nc1cccc(Cl)c1 [Compound 1.20]
- Root Growth ([2]; 1 g a.i./ha): 142
- Root Growth ([2]; 10 g a.i./ha): 114
- Root Growth ([2]; 100 g a.i./ha): 125

Compound: CN(C)CCCn1cc(C2=C(c3c[nH]c4ccccc34)C(=O)NC2=O)c2ccccc21 [Compound 8]
- Root Growth ([1]; 1 g a.i./ha): 122
- Root Growth ([1]; 10 g a.i./ha): 150
- Root Growth ([1]; 100 g a.i./ha): 123
- Root Growth ([2]; 1 g a.i./ha): 109
- Root Growth ([2]; 10 g a.i./ha): 150
- Root Growth ([2]; 100 g a.i./ha): 93

Compound: Cn1cc(C2=C(c3cn(CCCN)c4ccccc34)C(=O)NC2=O)c2ccccc21 [Compound 11]
- Root Growth ([1]; 1 g a.i./ha): 162
- Root Growth ([1]; 10 g a.i./ha): 169
- Root Growth ([1]; 100 g a.i./ha): 135

Compound: Cn1cc(C2=C(c3c4n(c5ccccc35)CCC(CN)C4)C(=O)NC2=O)c2ccccc21 (stereo not drawn) [Compound 12]
- Root Growth ([1]; 1 g a.i./ha): 126
- Root Growth ([1]; 10 g a.i./ha): 150
- Root Growth ([1]; 100 g a.i./ha): 141
